Test results from US7033829B2, “Method to inhibit cell growth using oligonucleotides” (Trustees of Boston University, priority 2000, dated 2006).
Oligonucleotides are written 5' to 3', each unit as a sugar letter and its base; * is a phosphorothioate linkage, no mark a phosphodiester; rarer units and linkages stand in square brackets, end groups in braces. Plain capitals give the bases only. d = 2'-deoxy (DNA); {P} = phosphate

How the values were obtained:
[1] = system: serine 15-phosphorylated p53, E2F1 (cells lacking functional ATM); experiment: Western blot of p53 serine 15 phosphorylation and E2F1 in AT fibroblasts; assay type: cell-based, human; details: 40 μM; 48 hours
Description: Because the serine 15 site on p53 is known to be phosphorylated in an ATM-dependent manner after exposure to ionizing radiation (IR), we wished to examine the role of ATM in E2F1 induction and p53 serine 15 phosphorylation in response to the 11 mer-1. Fibroblasts from a patient with ataxia telangiectasia (AT) known to lack functional ATM protein, and age-matched normal control fibroblasts (N) were treated with either diluent, 40 μM 11mer-1, sham irradiation or IR (10 Gy). Cells were collected 3 hours (sham or IR) or 48 hours (diluent, 11mer-1) for western blot analysis to detect serine 15-phosphorylated p53 and total p53. In normal fibroblasts, the 11mer-1 induced a 10–15 fold increase in the level p53 phosphorylation on serine 15 compared to diluent-treated controls.

p53 = p53 (Homo sapiens, UniProt P04637); experiment: p53 assay using hGH reporter plasmid in keratinocytes; assay type: cell-based; parameters: expressed in transfected cells; vector from Dr. Bert Vogelstein; details: 100 μM; 24 hours
Description: Transfection was performed in the presence of 100 μM pTpT (Midland Certified Reagent Company, Midland, Tex.) or an equal volume of diluent. At the same time, the PSV-β-galactosidase control vector (Promega, Madison, Wis.) was co-transfected to determine the transfection efficiency (Norton and Coffin, 1985). Four hours after transfection, the medium was removed and replaced with K-Stim medium with or without 100 μM pTpT. Twenty-four hours after transfection and pTpT treatment, 400 μl of the medium was harvested from each 35 mm culture dish, and 100 μl of ^125I-hGH antibody solution (Nichols Institute Diagnostics, San Juan Capistrano, Calif.) was added to detect secreted hGH as described below. The cells were harvested in a Reporter Lysis Buffer (Promega) using a protocol provided by the manufacturer, and 150 μl of this lysate was used for the β-galactosidase assay using a β-galactosidase assay kit (Promega). Samples from each of triplicate culture dishes were evaluated for hGH and β-galactosidase synthesis.
To confirm the activation of p53 by pTpT in a second assay, a reporter plasmid expressing the human growth hormone (hGH) gene under the influence of a p53 inducible promoter was employed. Activation of p53 increases its binding to the consensus sequence in the plasmid, leading to transcription of the hGH coding sequence and ultimately to secretion of hGH into the medium.

[2] = system: BP DNA adducts (CAT reporter plasmid) in human keratinocytes; experiment: Repair of BP-damaged CAT reporter plasmid in keratinocytes; assay type: cell-based; details: 100 μM 48 hours; ~25 or ~50 adducts/plasmid
Description: The pCAT vector (Promega) was treated with benzo[a]pyrene-7,8-diol-9,10-epoxide (BP) as described (Athas et al. Cancer Res 1991) to produce less damaged and more damaged plasmids, previously shown to be instructive in studies examining different repair capacities in human cells. Based on the incorporation of ^3H-BPDE into the DNA, the less damaged plasmid contained 25 adducts per 5 kb plasmid and the more damaged plasmid contained 50 adducts. This non-replicating vector contains the chloramphenicol acetyltransferase gene under control of SV40 promoter and enhancer sequences. […] CAT enzyme activity was determined using the liquid scintillation counting protocol and components of the assay system kit (Promega). ^14C-labeled chloramphenicol[50–60 mCi(1.85–2.22 GBq)/mmol] was purchased from New England Nuclear (Boston, Mass.). […]
To measure the repair of BP DNA adducts, non-replicating BP-damaged reporter plasmid system containing the bacterial chloramphenicol acetyltransferase (CAT) gene was used as described in Example 8. With first passage human keratinocytes, the transfection efficiency, as measured by the cotransfected β-galactosidase expression vector, was 40–70%.

[3] = system: tumor necrosis factor alpha gene (TNFα); experiment: Northern blot of TNFα in keratinocytes; assay type: cell-based, human; details: 24–72 hours
Excerpt: This immunomodulatory cytokine, known to be induced by UV irradiation, may thus be induced by T2. Use of locally applied DNA fragments, deoxynucleotides, dinucleotides, or dinucleotide dimers is useful in immunomodulation of cutaneous reactions and in treatment or prevention of diseases or conditions involving immune mediators.

LacZ reporter plasmid = experiment: UV-induced mutation frequency in LacZ transgenic mice; assay type: in vivo
Excerpt: Transgenic mice carrying multiple genomic copies of a LacZ reporter plasmid were used. One hundred μM pTpT in polypropyleneglycol was applied to one ear and vehicle alone to the other ear, daily for four days. On the fifth day, both ears were exposed to 100 mJ/cm^2 UVB light. This procedure was repeated weekly for 3, 5 or 7 weeks (3 mice/group). One week after the final irradiation, LacZ plasmids were harvested from the ear epidermis. Using methods well known in the art, the plasmids were recovered from genomic DNA by restriction enzyme digestion and specific binding to the LacI protein. Mutant LacZ plasmids were positively selected by transfection into bacteria and growth on selective medium and the mutation frequency was determined.

[4] = system: p53-null H1299 lung carcinoma cells; experiment: Cell growth of p53-null H1299 cells; assay type: cell-based, human; details: 100 μM; days 1–4
Excerpt: Both the GADD 45 and SDI 1 genes are known to be transcriptionally regulated by the tumor suppressor protein p53. After UV- and γ-irradiation, as well as treatment of cells with DNA-damaging chemical agents, there is a rapid stabilization, phosphorylation and nuclear accumulation of p53 after which this protein binds to specific promoter consensus sequences and modulates the transcription of regulated genes. […] In order to determine whether the inhibitory effect of the dinucleotide pTpT on cell proliferation is mediated in part through p53, the growth response of a p53 null cell line, H1299 lung carcinoma cells, was examined. The p53-null H1299 cells (Sanchez, Y. et al., Science 271:357–360 (1996)) were maintained in DMEM with 10% calf serum. Preconfluent cultures were given fresh medium supplemented with either 100 μM pTpT or diluent. Cells were collected on consecutive days by trypsinization, and counted by Coulter™ counter.

Chain of p53 (P04637 whole entry): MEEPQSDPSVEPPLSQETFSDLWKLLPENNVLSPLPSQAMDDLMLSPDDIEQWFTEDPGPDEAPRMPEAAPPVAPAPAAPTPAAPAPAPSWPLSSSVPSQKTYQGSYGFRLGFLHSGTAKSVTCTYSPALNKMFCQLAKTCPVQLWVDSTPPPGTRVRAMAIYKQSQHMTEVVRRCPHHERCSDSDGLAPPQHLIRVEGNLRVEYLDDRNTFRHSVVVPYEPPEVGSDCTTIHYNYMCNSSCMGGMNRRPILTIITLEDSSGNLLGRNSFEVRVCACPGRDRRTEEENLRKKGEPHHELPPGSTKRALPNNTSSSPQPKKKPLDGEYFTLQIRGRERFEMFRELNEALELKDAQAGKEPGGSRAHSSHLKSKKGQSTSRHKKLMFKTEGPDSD

Substance | increase in p53 phosphorylation on serine 15 [1] | increase in hGH secretion compared to diluent-treated cells (p53) | CAT expression relative to undamaged control vector, compared to diluent [2] | TNFα gene expression (Northern blot) [3] | mutation frequency (LacZ reporter plasmid; 100 μM topical, weekly UVB, after 3 weeks (diluent 293)) | lower mutation frequency than diluent treated skin (LacZ reporter plasmid; after 3, 5, and 7 weeks) | mutation frequency (LacZ reporter plasmid; after 5 weeks (diluent 216)) | mutation frequency (LacZ reporter plasmid; after 7 weeks (diluent 322)) | proliferation compared to diluent-treated controls [4]
pGTTAGGGTTAG (DNA {P}-dGdTdTdAdGdGdGdTdTdAdG) [SEQ ID NO: 5] | < 50% |  |  |  |  |  |  |  | 
thymidine dinucleotide [pTpT] |  | 45%±25% | approximate doubling of CAT expression | induction of the tumor necrosis factor alpha gene | 200 | 20–30% | 155 | 261 | no inhibition of proliferation
